The numbers were not newly measured in patent publication US20250339399A1, “SUPRAMOLECULAR SELF-ASSEMBLY SYSTEM” (Beijing Creatron Institute of Pharmaceutical Research Co., …, priority 2022, published 2025), which cites them from elsewhere.

Like-named read-outs stand apart in the source and are kept apart here.

The conditions of the data set: cited from earlier work; for Log D7.4: pH 7.4.
Where [1] appears, read: Cannabidiol derivatives, Table 30 (chemical structures).
[2] abbreviates: prost derivatives, Table 31 (relevant information).

With `C=C(C)[C@@H]1CCC(C)=C[C@H]1c1c(O)cc(CCC)c(C(=O)O)c1O` [compound 6, ((1′R,2′R)-2,6-dihydroxy-5′-methyl-2′-(prop-1-en-2-yl)-4-propyl-1′,2′,3′,4′-tetrahydro-[1,1′-biphenyl]-3-carboxylic acid)], under setting [1], the “Log P” value is listed as 5.74. The “Log D7.4” value (Cannabidiol derivatives) is reported as 2.26.

In the case of `C=C(C)[C@@H]1CCC(C(=O)O)=C[C@H]1c1c(O)cc(C(C)(C)CCCCCC)cc1O` [compound 25, ((1R,6R)-2′,6′-dihydroxy-4′-(2-methyloctan-2-yl)-6-(prop-1-en-2-yl)-1,4,5,6-tetrahydro-[1,1′-biphenyl]-3-carboxylic acid)], the lipophilicity (Log P) under setting [1] was “Log P = 6.99 H-D:3,H-R = 4”.

As for `CCCCC[C@H](O)/C=C/[C@H]1[C@H](O)CC(=O)[C@@H]1CCCCCCC(=O)O` [Alprostadil, alprostadil], under setting [2], the “Log P” value was “Log P 3.58 H,3 R-H 5”.

Consider “(2-[(1R,2R)-2-[2,6- di(acetoxy)-4- pentenyl]-4- methylcyclohex-3- en-1-yl]prop-2-en- 1-yl acetate) [compound 58]”, for which, under setting [1], the “Log P” value was “Log P = 5.31 H-D:0,H-R = 3”.

As to `C=C(C)[C@H]1CC[C@H](C)C[C@@H]1c1c(O)cc(/C=C/c2ccccc2O)cc1O` [compound 15, (5-((E)-2-hydroxystyryl-2-(1S,2S,5S)-5-methyl-2-(prop-1-en-2-yl)cyclohexyl)phenyl-1,3-diol)], under setting [1], the “Log P” value is listed as “Log P = 6.48 H-D:3,H-R = 3”.

In the case of `C=C(C)[C@H]1CC[C@H](C)C[C@@H]1c1c(O)cc(-c2cc3ccccc3o2)cc1O` [compound 16], the “Log P” value under setting [1] is “Log P = 6.17 H-D:2,H-R = 2”.

As for `C=C(C)[C@H]1CCC(C)=C[C@@H]1c1c(O)cc(CCCCC)cc1O` [compound 19, ((1′S,2′S)-5′-methyl-4-pentyl-2′-(propanediol-1-en-2-yl)-1′,2′,3′,4′-tetrahydro-[1,1′-biphenyl]-2,6-diol)], the “Log P” value under setting [1] is on record as “Log P = 6.33 H-D:2,H-R = 2”.

Take `C=C(C)c1ccc(C)cc1-c1c(O)cc(CCCCC)cc1O` [compound 8, (5′-methyl-4-pentyl-2′-(prop-1-en-2-yl)-[1,1′-biphenyl]-2,6-diol)]: the lipophilicity (Log P) under setting [1] is “Log P = 6.85 H-D:2,H-R = 2”.

As for `C=C(C)[C@@H]1CCC(C)=C[C@H]1c1c(O)cc(C(C)(C)CCCCCC)cc1O` [compound 24, ((1′R,2′R)-5′-methyl-4-(2-methyloctan-2-yl)-2′-(prop-1-en-2-yl)-1′,2′,3′,4′-tetrahydro-[1,1′-biphenyl]-2,6-diol)], the “Log P” value under setting [1] is listed as “Log P = 7.38 H-D:2,H-R = 2”.

Consider `CCCCC(C)(O)C/C=C/[C@H]1[C@H](O)CC(=O)[C@@H]1CCCCCCC(=O)OC` (mixture of isomers) [Misoprostol, misoprostol], for which the “Log P” value under setting [2] is given as “Log P:3.86 D-H: 2 R-H:4”.

In the case of `CCCCCc1cc(O)c2c(c1)OC(C)(C)[C@@H]1CCC(C)=C[C@@H]21` [compound 66, Tetrahydrocannabinol], under setting [1], the “Log P” value is recorded as “Log P = 5.73 H-D:1,H-R = 2”.

Consider `C=C(C)[C@@H]1CCC(C)=C[C@H]1c1c(O)cc(CCC)cc1O` [compound 3, ((1′R,2′R)-5′-methyl-2′-(prop-1-en-2-yl)-4-propyl-1′,2′,3′,4′-tetrahydro-[1,1′-biphenyl]-2,6-diol)], for which the “Log P” value under setting [1] was “Log P = 5.44 H-D:2,H-R = 2”.

On to `CCCCCc1cc(O)c([C@@H]2C=C(CO)CC[C@H]2C(C)C)c(O)c1` [compound 22, ((1′S,2′S)-5′-(hydroxymethyl)-2′-isopropyl-4-pentyl-1′,2′,3′,4′-tetrahydro-[1,1′-biphenyl]-2,6-diol)], for which, under setting [1], the “Log P” value is “Log P = 5.39 H-D:3,H-R = 3”.

Regarding `C=C(C)[C@@H]1CCC(C)=C[C@H]1c1c(O)cc(CCCCC)cc1OC` [compound 7, ((1′R,2′R)-6-methoxy-5′-methyl-4-pentyl-2′-(prop-1-en-2-yl)-1′,2′,3′,4′-tetrahydro-[1,1′-biphenyl]-2-ol)], the “Log P” value under setting [1] is listed as “Log P = 6.47 H-D:1,H-R = 2”.

For the compound `C=C(C)[C@@H]1CCC(C)=C[C@H]1c1c(O)cc(CCCCC)cc1OCCCN` [compound 51, ((1′R,2′R)-6-(3-aminopropoxy)-5′-methyl-4-pentyl-2′-(prop-1-en-2-yl)-1′,2′,3′,4′-tetrahydro-[1,1′-biphenyl]-2-ol)], the lipophilicity (Log P) under setting [1] is “Log P = 5.73 H-D:2,H-R = 3”.

On to `O=C1C[C@@H]2[C@@H](CC[C@@H](O)CCc3ccccc3)[C@H](O)C[C@@H]2O1` [Latanoprost lactone diol, latanoprost lactone diol], for which, under setting [2], the “Log P” value is “Log P: 1.87 D-H: 2 R-H: 3”.

In the case of `CCCCC(C)(C)[C@H](O)/C=C/[C@H]1[C@H](O)CC(=O)[C@@H]1CCCC/C=C/C(=O)OC` [Gemeprost, gemeprost], the “Log P” value under setting [2] is reported as “Log P:4.71 D-H: 2 R-H:4”.

Regarding `C=C(C)[C@@H]1CCC(C)=C[C@H]1c1c(O)cc(CCCC(=O)O)cc1O` [compound 36, (4-((1′R,2′R)-2,6-dihydroxy-5′-methyl-2′-(prop-1-en-2-yl)-1′,2′,3′,4′-tetrahydro-[1,1′-biphenyl]-4-yl)butyric acid)], the “Log P” value under setting [1] is “Log P = 4.59 H-D:3,H-R = 4”.

For `CCCCCCC(C)(C)c1cc(OC)c([C@H]2C=C(CO)[C@H]3C[C@@H]2C3(C)C)c(OC)c1` [compound 30], the “Log P” value under setting [1] is “Log P = 6.39 H-D:1,H-R = 3”.

As for `CCCCCc1cc(O)c(C/C=C(\C)CCC=C(C)C)c(O)c1` [compound 64, (2-[(2E)-3,7-dimethylocta-2,6-dienyl]-5-pentylbenzene-1,3-diol)], the “Log P” value is “Log P = 7.05 H-D:2,H-R = 2”.

For `C=C(C)[C@@H]1CCC(C)=C[C@H]1c1c(O)cc(CCCC)cc1O` [compound 4, ((1′R,2′R)-4-butyl-5′-methyl-2′-(prop-1-en-2-yl)-1′,2′,3′,4′-tetrahydro-[1,1′-biphenyl]-2,6-diol)], the “Log P” value under setting [1] is recorded as “Log P = 5.88 H-D:2,H-R = 2”.

In the case of `C=C(C)[C@@H]1CCC(C)=C[C@H]1C1=C(O)C(=O)C(CCCCC)=C(NCc2ccccc2)C1=O` [compound 61, (2,5-cyclohexadiene-1,4-dione, 2-hydroxy-3-((1R,6R)-3-methyl-6-(1-methylvinyl)-2-cyclohexen-1-yl)-6-pentyl-5-((benzyl)amino))], under setting [1], the “Log P” value is given as “Log P = 6.23 H-D:2,H-R = 4”.

In the case of `C=C(C)[C@H]1CCC(C)=C[C@@H]1c1c(O)cc(O)c(C(=O)CCc2ccccc2)c1O` [compound 18, (3-phenyl-1-((1′S,2′S)-2,4,6-trihydroxy-5′-methyl-2′-(prop-1-en-2-yl)-1′,2′,3′,4′-tetrahydro-[1,1′-biphenyl]-3-yl)prop-1-one)], the “Log P” value under setting [1] is “Log P = 6.87 H-D:3,H-R = 4”.

On to `O=C(O)CCC/C=C\C[C@@H]1[C@@H](/C=C/[C@@H](O)COc2cccc(C(F)(F)F)c2)[C@H](O)C[C@@H]1O` [Travoprost acid, travoprost acid], for which the “Log P” value under setting [2] was “Log P:2.92 D-H: 4 R-H: 6”.

For the compound `C=C(C)[C@@H]1CCC(CO)=C[C@H]1c1c(O)cc(C(C)(C)CCCCCC)cc1O` [compound 26, ((1′R,2′R)-5′-(hydroxymethyl)-4-(2-methyloctan-2-yl)-2′-(prop-1-en-2-yl)-1′,2′,3′,4′-tetrahydro-[1,1′-biphenyl]-2,6-diol)], under setting [1], the “Log P” value was “Log P = 6.52 H-D:3,H-R = 3”.

As for `CCCCCCC(C)(C)c1cc(O)c([C@@H]2CC(C)CC[C@H]2C(C)C)c(O)c1` (stereo partly drawn) [compound 29, (2-((1R,2S)-2-isopropyl-5-methylcyclohexyl)-5-(2-methyloctan-2-yl)benzene-1,3-diol)], under setting [1], the lipophilicity (Log P) is reported as “Log P = 8.55 H-D:2,H-R = 2”.

For the compound `C=C(C)[C@@H]1CC(OC(C)=O)C(C)=C[C@H]1c1c(OC(C)=O)cc(CCCCC)cc1OC(C)=O` (stereo partly drawn) [compound 57, (3-(acetyloxy)-2-[(1R,6R)-4-(acetyloxy)-3-methyl-6-(prop-1-en-2-yl)cyclohex-2-en-1-yl]-5-pentylphenyl acetate)], the “Log P” value under setting [1] is recorded as “Log P = 5.36 H-D:0,H-R = 3”.

For the compound `C=C(C)[C@@H]1CCC(C)=C[C@H]1c1c(O)cc(C)cc1O` [compound 2, ((1′R,2′R)-4,5′-dimethyl-2′-(prop-1-en-2-yl)-1′,2′,3′,4′-tetrahydro-[1,1′-biphenyl]-2,6-diol)], under setting [1], the “Log P” value is on record as “Log P = 4.55, H-D:2,H-R = 2”.

In the case of `CCCCCCC(C)(C)c1cc(OC)c(C2C=C(CO)[C@@H]3C[C@H]2C3(C)C)c(OC)c1` (some centres unmarked) [compound 31], under setting [1], the “Log P” value is “Log P = 6.39 H-D:1,H-R = 3”.

`C=C(C)[C@@H]1CCC(C)=C[C@H]1c1c(O)cc(O)cc1CCCCC` [compound 63, (4-[(1R,6R)-3-methyl-6-prop-1-en-2-ylcyclohex-2-en-1-yl]-5-pentylbenzene-1,3-diol)]: the “Log P” value under setting [1] was “Log P = 6.33 H-D:2,H-R = 2”.

With `C=C(C)[C@@H]1CCC(C(=O)O)=C[C@H]1c1c(O)cc(CCCCC)cc1O` [compound 10, ((1R,6R)-2′,6′-dihydroxy-4′-pentyl-6-(prop-1-en-2-yl)-1,4,5,6-tetrahydro-[1,1′-biphenyl]-3-carboxylic acid)], the “Log P” value under setting [1] is 5.52. Moreover, the “Log D7.4” value (Cannabidiol derivatives) is listed as 2.40.

In the case of `C=C(C)[C@@H]1CCC(C)=C[C@H]1C1=C(O)C(=O)C(CCCCC)=CC1=O` [compound 59, (3-hydroxy-2-[(1R,6R)-3-methyl-6-prop-1-en-2-ylcyclohex-2-en-1-yl]-5-pentylcyclohex-2,5-diene-1,4-dione)], under setting [1], the “Log P” value is given as “Log P = 5.23 H-D:1,H-R = 3”.

As for `C=C(C)[C@H]1CC[C@H](C)C[C@@H]1c1c(O)cc(/C=C/c2ccccc2)cc1O` [compound 14, (2-((1S,2S,5S)-5-methyl-2-(prop-1-en-2-yl)cyclohexyl)-5-((E)-styryl)phenyl-1,3-diol)], under setting [1], the “Log P” value was “Log P = 6.78 H-D:2,H-R = 2”.

In the case of `CCCCCc1cc(O)c([C@@H]2CC(C)CC[C@H]2C(C)C)c(O)c1` (stereo partly drawn) [compound 21, (2-((1R,2S)-2-isopropyl-5-methylcyclohexyl)-5-pentylbenzene-1,3-diol)], the “Log P” value under setting [1] was “Log P = 7.08 H-D:2,H-R = 2”.

`CCCCCc1cc(O)c([C@H]2C=C(CO)CC[C@H]2C(C)C)c(O)c1` [compound 23, ((1′R,2′S)-5′-(hydroxymethyl)-2′-isopropyl-4-pentyl-1′,2′,3′,4′-tetrahydro-[1,1′-biphenyl]-2,6-diol)]: under setting [1], the “Log P” value is reported as “Log P = 5.39 H-D:3,H-R = 3”.

In the case of `C=C(C)[C@@H]1CCC(C)=C[C@H]1c1c(O)cc(CCCCC)cc1O` [compound 1, ((1′R,2′R)-5′-methyl-4-pentyl-2′-(prop-1-en-2-yl)-1′,2′,3′,4′-tetrahydro-[1,1′-biphenyl]-2,6-diol)], the “Log P” value under setting [1] was “Log P = 6.32, H-D:2,H-R = 2”.

One may read the Log P as the decadic logarithm of the partition coefficient of the neutral form, usually between octanol and water.
